{"source": "patent US6589965B2", "about": "“Method of treating and preventing migraine headaches” (Pharmacia & Upjohn Company, priority 2001, dated 2003)", "key": {"[1]": {"tested_on": "quinpirole-induced yawning in rats", "test": "antagonism of quinpirole-induced yawning in rats", "type": "in vivo, Male Sprague Dawley Rats", "method": "Yawning is a behavior that has been linked to activation of dopaminergic neurotransmission.\nMale Sprague Dawley Rats were used in this example. The animals were allowed 12 day acclimatization before testing and at the time of the study, their body weights ranged from 280-330 grams. The rats were housed in standard size steel cages with four animals per cage and were maintained on a 12 hour light/dark schedule with the lights being on from 6:00 a.m. to 6:00 p.m. All tests were performed between 8:00 a.m. and 2:00 p.m. Six animals were used per group.\nThe animals were then placed individually in a 6″×6″plexiglass observation cages and the number of yawns were counted for the subsequent 30 minutes. The results are shown in FIG. 1 with the data being expressed as the mean total number of yawns per 30 minutes. An analysis of variance was used for statistical calculations and probability levels of <0.05 was regarded as being statistically significant."}, "[2]": {"tested_on": "migraine headache", "details": "cited from earlier work; for efficacy in acute treatment of migraine (in words): literature reports"}, "[3]": {"target": "D2 dopamine receptor (Homo sapiens, UniProt P14416)", "sequence (P14416 whole entry)": "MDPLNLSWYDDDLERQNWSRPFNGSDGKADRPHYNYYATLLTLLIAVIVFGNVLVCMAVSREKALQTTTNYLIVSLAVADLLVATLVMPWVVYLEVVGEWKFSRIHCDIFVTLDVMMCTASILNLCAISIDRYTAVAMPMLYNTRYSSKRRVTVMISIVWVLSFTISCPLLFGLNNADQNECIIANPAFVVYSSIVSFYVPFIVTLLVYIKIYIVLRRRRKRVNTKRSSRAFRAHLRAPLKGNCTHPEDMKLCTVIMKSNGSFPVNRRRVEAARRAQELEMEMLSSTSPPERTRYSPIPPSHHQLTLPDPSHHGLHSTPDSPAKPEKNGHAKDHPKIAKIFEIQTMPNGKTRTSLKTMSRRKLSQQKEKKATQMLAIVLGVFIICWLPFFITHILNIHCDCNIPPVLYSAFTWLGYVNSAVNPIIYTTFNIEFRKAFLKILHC", "details": "cited from earlier work"}, "[4]": {"tested_on": "migraine", "details": "literature reports; cited from earlier work"}, "[5]": {"details": "within 60 minutes of administration, randomized, double-blind clinical trial (Jones et al 1989)"}}, "data": [{"smiles": "CCCN1CCC[C@@H](c2cccc(S(C)(=O)=O)c2)C1", "note": "[Cmpd 1, S-(−)-3-[3-(methylsulfonyl)phenyl]-1-propyl-piperidine]", "values": [{"measurement": "antagonism of the yawning behavior induced by quinpirole", "setting": "[1]; 10 or 30 mg/kg injected 15 minutes before quinpirole 0.1 mg/kg", "value": "dose-dependent and complete antagonism"}, {"measurement": "induction of yawning behavior by compound given alone", "setting": "[1]; given alone at a dose of 30 mg/kg", "value": "failed to induce yawning behavior"}]}, {"smiles": "O=C(CCCN1CCC(O)(c2ccc(Cl)cc2)CC1)c1ccc(F)cc1", "note": "[haloperidol]", "values": [{"measurement": "patients with headache completely or substantially relieved", "setting": "[2]; Fisher, J Emerg Med 1995", "value": "six of six"}, {"measurement": "time to headache relief after administration", "setting": "[2]; Fisher, J Emerg Med 1995", "value": "25 to 65", "unit": "min"}]}, {"smiles": "Fc1ccc(C(c2ccc(F)cc2)N2CCN(C/C=C/c3ccccc3)CC2)cc1", "note": "[Flunarizine]", "values": [{"measurement": "efficacy in acute treatment of migraine (in words)", "setting": "[2]", "value": "high degree of relief"}, {"measurement": "affinity for the D2 dopamine receptor (in words)", "setting": "[3]", "value": "moderate degree of affinity"}]}, {"smiles": "O=c1[nH]c2ccccc2n1CCCN1CCC(n2c(=O)[nH]c3cc(Cl)ccc32)CC1", "note": "[Domperidone]", "values": [{"measurement": "preventive / prophylactic effect on migraine (in words)", "setting": "[4]", "value": "prevent the occurrence of a migraine"}]}, {"smiles": "CN(C)CCCN1c2ccccc2Sc2ccc(Cl)cc21", "note": "[Chlorpromazine]", "values": [{"measurement": "efficacy in acute treatment of migraine (in words)", "setting": "[2]", "value": "highly effective"}, {"measurement": "common side effect", "setting": "[2]; migraine patients in an emergency department (Lane et al 1985)", "value": "moderate drowsiness"}]}, {"smiles": "CCN(CC)CCNC(=O)c1cc(Cl)c(N)cc1OC", "note": "[Metoclopramide]", "values": [{"measurement": "affinity for the D2 dopamine receptor (in words)", "setting": "[3]", "value": "relatively low affinity"}, {"measurement": "preventive / prophylactic effect on migraine (in words)", "setting": "[4]", "value": "beneficial effect"}]}, {"smiles": "CN1CCN(CCCN2c3ccccc3Sc3ccc(Cl)cc32)CC1", "note": "[Prochlorperazine]", "values": [{"measurement": "efficacy in acute treatment of migraine (in words)", "setting": "[2]", "value": "high degree of efficacy"}, {"measurement": "additional patients with partial relief", "setting": "[2]; [5]", "value": 14, "unit": "%"}, {"measurement": "patients with complete relief", "setting": "[2]; [5]", "value": 74, "unit": "%"}]}]}
